Assays:
Assay type in all cases: cell-based
[1] = tested on: Lactococcus lactis subsp. lactis JCM5805 strain; assay: Growth promoting effect, MRS medium, anaerobic cultivation (OD600)
Experimental: A Lactococcus lactis subsp. lactis JCM5805 strain was used as the lactic acid coccus.
The bacteria were counted by measuring the OD600 (turbidity) of the medium using an absorbance meter (Biochrom GeneQuant 1300).
Measured values were expressed as mean±standard error. One-way analysis of variance was followed by Tukey's test, and cases where p<0.05 relative to the control group were evaluated as having a significant difference.

Pediococcus acidilactici = assay: Growth promoting effect on lactic acid cocci of the genus Pediococcus, MRS medium, anaerobic (Example 6); settings: strain JCM8797, MRS medium, αKG 0.1 to 4 or 1 to 4% by mass, malic acid 0.1 to 2 or 1 to 2% by mass, FIG. 8
Experimental: (§1) The lactic acid cocci of the genus Pediococcus indicated in Table 5 were used as the bacterial cells.
(§2) Cultivation was performed in a similar manner as described in Example 1, item (1), B (i), except that α-ketoglutaric acid (concentrations shown in FIG. 8A (0.1 to 4% by mass) and FIG. 8C (1 to 4% by mass)) and malic acid (concentrations shown in FIG. 8B (0.1 to 2% by mass) and FIG. 8D (1 to 2% by mass)) were each added, as the dicarboxylic acids, to the medium (anaerobic cultivation).
(§3) Measurement was performed in a similar manner as described in Example 1, item (1), C.
(§4) Analysis was performed in a similar manner as described in Example 1, item (1), D.

Pediococcus damnosus = assay: as above; settings: strain JCM5886, MRS medium, αKG 0.1 to 4 or 1 to 4% by mass, malic acid 0.1 to 2 or 1 to 2% by mass, FIG. 8
Experimental: as §1, §2, §3, §4

[2] = tested on: Lactococcus lactis subsp. lactis JCM5805 strain; assay: Growth promoting effect, GM17 medium, aerobic cultivation (OD600); settings: 0.5 to 2% by mass, 30° C. 24 hours, FIG. 4
Experimental: (§5) The lactic acid coccus described in Example 1, item (1), A was used.
The medium used was GM17 medium. […] Next, the bacterial cells were inoculated (seeded) so that the concentration of the bacterial cells was 0.1% (v/v) with respect to 10 ml of the prepared medium, and the medium inoculated with the bacterial cells was placed in an automatic cultivation searching device OT-201 (Oriental Instruments; sometimes referred to as “bioplotter” herein), and cultivated at 30° C. for 24 hours (stirring intensity condition: Medium).
as §3, §4

[3] = tested on: Lactococcus lactis subsp. lactis JCM5805 strain; assay: Growth promoting effect, GM17 medium, anaerobic cultivation (OD600); settings: 0.5 to 2% by mass, 30° C. 24 hours, FIG. 3
Text: as §5
The medium used was a medium obtained by adding 20 g/L of glucose to M17 medium (Difco M17 Broth, BD; the composition thereof is indicated in Table 2; the same applies hereinafter in the present specification) (sometimes referred to as “GM17 medium” herein). […] Next, the bacterial cells were inoculated (seeded) in a 15-ml conical tube (FALCON) so that the concentration of the bacterial cells was 0.1% (v/v) with respect to 10 ml of the prepared medium, and cultivated at 30° ° C. for 24 hours in an incubator (TOKYO […] CO., LTD.) (static cultivation).
as §3, §4

[4] = tested on: Lactococcus lactis subsp. lactis JCM5805 strain; assay: Growth promoting effect, MRS medium, aerobic cultivation (OD600); settings: 0.5 to 2.0% by mass, 30° C. 24 hours, FIG. 2
Experimental: A Lactococcus lactis subsp. lactis JCM5805 strain was used as the lactic acid coccus. The medium used was MRS medium. […] Next, the bacterial cells were inoculated (seeded) so that the concentration of the bacterial cells was 0.1% (v/v) with respect to 10 ml of the medium, and the medium inoculated with the bacterial cells was placed in an automatic cultivation searching device OT-201 (Oriental Instruments: sometimes referred to as “bioplotter” herein), and cultivated at 30° ° C. for 24 hours (stirring intensity condition: Medium). The bacteria were counted by measuring the OD600 (turbidity) of the medium using an absorbance meter (Biochrom GeneQuant 1300). Measured values were expressed as mean±standard error. One-way analysis of variance was followed by Tukey's test, and cases where p<0.05 relative to the control group were evaluated as having a significant difference.

[5] = 0.01 to 4.0% by mass, 30° C. 24 hours, FIG. 1A/1C

Structure (SMILES) | growth of the lactic acid coccus (OD600) as compared with the control ([1]; citric acid 0.25 to 1% by mass, FIG. 7) | growth of the lactic acid coccus (OD600) as compared with the control [1, 5] | growth of the lactic acid cocci belonging to the genus Pediococcus (OD600) as compared with the control (Pediococcus acidilactici) | growth of the lactic acid cocci belonging to the genus Pediococcus (OD600) as compared with the control (Pediococcus damnosus) | growth of the lactic acid coccus (OD600) as compared with the control [2] | growth of the lactic acid coccus (OD600) as compared with the control [3] | growth of the lactic acid coccus (OD600) as compared with the control [4]
O=C(O)CC(O)(CC(=O)O)C(=O)O [citric acid, reference compound] | significantly promoted |  |  |  |  |  | 
O=C(O)CC(O)C(=O)O (stereo not shown) [malic acid] |  | significantly promoted in a concentration-dependent manner | significantly promoted in a concentration-dependent manner | significantly promoted in a concentration-dependent manner | promoted in a concentration-dependent manner | significantly promoted | significantly promoted in a concentration-dependent manner
O=C(O)CCC(=O)C(=O)O [αKG, α-ketoglutaric acid] |  | significantly promoted in a concentration-dependent manner | significantly promoted in a concentration-dependent manner | significantly promoted in a concentration-dependent manner | promoted in a concentration-dependent manner | significantly promoted | significantly promoted in a concentration-dependent manner

— patent US20240191177A1, “GROWTH PROMOTER FOR LACTIC ACID COCCI” (KIRIN HOLDINGS KABUSHIKI KAISHA, priority 2002, published 2024)
